The source of these data is ChEMBL document CHEMBL4385594, “4(3H)-Quinazolinone derivatives: Promising antibacterial drug leads” (Eur J Med Chem, 2019).

Data set [1] deals with Staphylococcus aureus. Nature of the data set: Antibacterial activity against Staphylococcus aureus assessed as reduction in bacterial cell growth at 0.03 to 64 ug/ml incubated for 16 to 18 hrs by CLSI broth dilution method. The data set is classed as functional.
Data set [2] deals with Acinetobacter baumannii. Nature of the data set: Antibacterial activity against multidrug-resistant Acinetobacter baumannii assessed as reduction in bacterial cell growth incubated for 24 hrs by broth dilution method. It counts as functional. On the technique in general: Broth dilution looks for growth in wells or tubes with falling amounts of substance.
Data set [3] is described as follows: Cytotoxicity against human HepG2 cells assessed as reduction in cell viability at 0 to 50 uM incubated for 48 hrs by MTT assay. It counts as cell-based. The conditions noted are these: read-out: LD50. (In general: Tetrazolium dyes change colour on reduction, which living cells bring about.)
Data set [4] deals with Acinetobacter baumannii. Nature of the data set: Antibacterial activity against Acinetobacter baumannii 1646 infected in mouse model of peritonitis assessed as increase in survival rate at 2 mg/kg, ip dosed at 1 hr post infection (reference value: 66%). The data set is classed as functional. The conditions noted are these: Acinetobacter baumannii, 1646, ip.
In a further data set the test system is Escherichia coli. Nature of the data set: Antibacterial activity against Escherichia coli assessed as diameter of zone inhibition at 100 ppm by disc diffusion method. The data set is classed as functional. The conditions noted are these: read-out: DIZ.
Data set [5] deals with Staphylococcus aureus. Nature of the data set: Antibacterial activity against Staphylococcus aureus assessed as diameter of zone inhibition at 100 ppm by disc diffusion method. It counts as functional. The conditions noted are these: read-out: DIZ.
The subject of the next data set is MCF7. The data set is described as follows: Cytotoxicity against human MCF7 cells assessed as reduction in cell viability at 0.1 to 100 uM by MTT assay. It counts as functional, cell-based.
The test system of data set [6] is Staphylococcus aureus. Nature of the data set: Antibacterial activity against methicillin-resistant Staphylococcus aureus assessed as reduction in bacterial cell growth at 0.5 to 512 ug/ml incubated for 24 hrs by CLSI broth microdilution method. It counts as functional.
In data set [7] the test system is Staphylococcus aureus. Nature of the data set: Antibacterial activity against Staphylococcus aureus. It counts as functional.
In data set [8] the test system is Staphylococcus aureus. Nature of the data set: Antibacterial activity against Staphylococcus aureus assessed as inhibition zone. The data set is classed as functional.
The subject of data set [9] is Staphylococcus aureus. Nature of the data set: Antibacterial activity against Staphylococcus aureus NCIM 2901 assessed as reduction in bacterial cell growth at 0.03 to 64 ug/ml incubated for 16 to 18 hrs by CLSI broth microdilution method. It counts as functional.
Another data set relates to Bacillus subtilis. The data set is described as follows: Antibacterial activity against Bacillus subtilis MTCC 441 assessed as reduction in bacterial cell growth at 0.03 to 64 ug/ml incubated for 16 to 18 hrs by CLSI broth microdilution method. The data set is classed as functional.
Another data set relates to Pseudomonas aeruginosa. The data set is described as follows: Antibacterial activity against Pseudomonas aeruginosa NCIM 2036 assessed as reduction in bacterial cell growth at 0.03 to 64 ug/ml incubated for 16 to 18 hrs by CLSI broth microdilution method. It counts as functional.

Converted amounts (≈) assume the structure as drawn. A value given as a limit tells only on which side of the number the result lay.

For orientation: MIC means the smallest concentration in the dilution series that meets the test's criterion for growth inhibition. `CN(C)/C=C/c1nc2ccccc2c(=O)n1-c1cccc(C(=O)NC2CC2)c1`: in the data set on Staphylococcus aureus [1], the MIC was over 64 µg/mL.
For `CNc1nc(NCc2ccccc2)nc2cc(C)ccc12`, the minimal inhibitory concentration (MIC) in the data set with Acinetobacter baumannii [2] amounted to 0.5 µM (≈ 0.139 µg/mL). In addition, the CC50 at 48 h in [3] stood at 23 µM. The survival at 2 mg/kg in the data set on Acinetobacter baumannii [4] stood at 90%.
Regarding `N#Cc1ccc(/C=C/c2nc3ccccc3c(=O)n2-c2ccc(O)cc2)cc1`, the minimum inhibitory concentration (MIC) in the data set on Staphylococcus aureus [1] worked out at 8 µg/mL (≈ 21.9 µM).
Same read-out and setting: in the case of `N#Cc1ccc(/C=C/c2nc3cccc(Cl)c3c(=O)n2-c2cccc(C(=O)O)c2)cc1` it was 8 µg/mL (≈ 18.7 µM); in that of `N#Cc1ccc(/C=C/c2nc3ccccc3c(=O)n2-c2cccc(C(=O)NC3CC3)c2)cc1`, 0.5 µg/mL (≈ 1.16 µM).
For `Cc1nc2ccc(I)cc2c(=O)n1/N=C/c1cc(Br)cc(Br)c1O`, the zone of inhibition at 100 ppm in the data set on Escherichia coli worked out at 16 mm; in the data set on Staphylococcus aureus [5], 14 mm.
For `N#Cc1ccc(/C=C/c2nc3ccccc3c(=O)n2-c2cccc(C(=O)N3CCCC3)c2)cc1`, the minimum inhibitory concentration (MIC) with Staphylococcus aureus [1] amounted to 4 µg/mL (≈ 8.96 µM).
With `Cc1nc2ccc(I)cc2c(=O)n1/N=C/c1cc(I)cc(I)c1O`, the zone of inhibition at 100 ppm came to 16 mm in the data set on Escherichia coli and 14 mm with Staphylococcus aureus [5].
On to `CNc1nc(NCc2ccccc2)nc2cc(Cl)ccc12`, for which the minimal inhibitory concentration (MIC) with Acinetobacter baumannii [2] amounted to 0.5 µM (≈ 0.149 µg/mL). The CC50 at 48 h in [3] was determined as 23 µM. Moreover, in the data set with Acinetobacter baumannii [4], the survival at 2 mg/kg is 90%.
For the molecule `CNc1nc(NCc2ccccc2)nc2ccc(Br)cc12`, in the data set on Acinetobacter baumannii [2], the minimum inhibitory concentration (MIC) stood at 0.5 µM (≈ 0.172 µg/mL). Also, the CC50 at 48 h in [3] turned out to be 23 µM. Also, in the data set on Acinetobacter baumannii [4], the survival at 2 mg/kg was 90%.
`CNc1nc(NCc2ccccc2)nc2cc(Br)ccc12`: the minimal inhibitory concentration (MIC) in the data set with Acinetobacter baumannii [2] was 0.5 µM (≈ 0.172 µg/mL). Besides, the CC50 at 48 h in data set [3] was found to be 23 µM. Further, the survival at 2 mg/kg in the data set with Acinetobacter baumannii [4] was 90%.
A word on the IC50: it is the concentration at which inhibition is half-maximal. Take `Cn1cc[n+](C(Cn2cnc3ccccc3c2=O)c2cc3cc(Br)ccc3o2)c1` (stereo not given): in the data set on MCF7, the IC50 was 0.57 to 1 µM.
Take `N#Cc1ccc(/C=C/c2nc3ccccc3c(=O)n2-c2cccc(C(=O)N3CCOCC3)c2)cc1`: in the data set with Staphylococcus aureus [1], the MIC was determined as 8 µg/mL (≈ 17.3 µM).
With `Cc1nc2ccc(I)cc2c(=O)n1/N=C/c1cc(Cl)cc(Cl)c1O`, the zone of inhibition at 100 ppm amounted to 16 mm in the data set on Escherichia coli and 14 mm in the data set on Staphylococcus aureus [5].
With `C#CCOc1cccc(-n2c(/C=C/c3ccc(C#N)cc3)nc3ccccc3c2=O)c1`, the MIC in the data set with Staphylococcus aureus [1] amounted to 0.25 µg/mL (≈ 0.62 µM).
For `N#Cc1ccc(/C=C/c2nc3ccccc3c(=O)n2-c2cccc(C(=O)N3CCCCC3)c2)cc1`, the minimal inhibitory concentration (MIC) with Staphylococcus aureus [1] was found to be 4 µg/mL (≈ 8.69 µM).
Still for that read-out and setting: under `Cc1nc2ccccc2c(=O)n1-c1cccc(C(=O)NC2CC2)c1` stands over 64 µg/mL; under `Cc1cccc2c(=O)n(-c3cccc(C(=O)O)c3)c(/C=C/c3ccc(C#N)cc3)nc12`, 2 µg/mL (≈ 4.91 µM).
Still for that read-out and setting: in the case of `C#Cc1cccc(-n2c(/C=C/c3ccc(C#N)cc3)nc3ccccc3c2=O)c1` it was 0.5 µg/mL (≈ 1.34 µM).
Regarding `CNc1nc(NCc2ccccc2)nc2ccc(C)cc12`, in the data set with Acinetobacter baumannii [2], the MIC was found to be 0.5 µM (≈ 0.139 µg/mL). Further, the CC50 at 48 h in data set [3] stood at 23 µM. In addition, the survival at 2 mg/kg with Acinetobacter baumannii [4] is 90%.
Turning to `O=c1c2ccc(F)cc2ncn1CC(O)Cn1cncn1` (stereo not given), in the data set with Staphylococcus aureus [6], the MIC was 8 µg/mL (≈ 27.7 µM).
In the case of `CNc1nc(NCc2ccccc2)nc2ccc(Cl)cc12`, in the data set with Acinetobacter baumannii [2], the MIC stood at 0.5 µM (≈ 0.149 µg/mL). Also, the CC50 at 48 h in data set [3] was found to be 23 µM. For the same molecule, the survival at 2 mg/kg with Acinetobacter baumannii [4] was 90%.
As to `COc1cc(/C=N/n2c(C)nc3ccc(I)cc3c2=O)cc(I)c1O`, the zone of inhibition at 100 ppm came out at 16 mm in the data set on Escherichia coli and 14 mm in the data set with Staphylococcus aureus [5].
Turning to `C#CCOc1cccc(-n2c(/C=C/c3ccc(Cl)cc3)nc3ccccc3c2=O)c1`, the minimum inhibitory concentration (MIC) with Staphylococcus aureus [1] stood at 32 µg/mL (≈ 77.5 µM).
With `COc1cc(/C=N/n2c(C)nc3ccc(Br)cc3c2=O)cc(Br)c1O`, the zone of inhibition at 100 ppm was found to be 16 mm in the data set on Escherichia coli and 14 mm in the data set with Staphylococcus aureus [5].
On to `Cn1cc[n+](C(Cn2cnc3ccccc3c2=O)c2cc3ccccc3o2)c1` (stereo not given), for which the IC50 with MCF7 lay within 0.57 to 1 µM.
In the data set with Staphylococcus aureus [7], `Cc1ccc2c(c1)c(=O)n(-c1ccccc1)c1n[nH]c(=S)n21` had an MIC of 32 µg/mL (≈ 104 µM). The “inhibition zone (IZ)” value with Staphylococcus aureus [8] came out at 17 mm.
Regarding `Cc1ccccc1NC(=O)Nn1c(-c2ccccc2)nc2ccccc2c1=O`, the MIC in the data set on Staphylococcus aureus [9], with Bacillus subtilis and in the data set with Pseudomonas aeruginosa was 1.56 µg/mL (≈ 4.21 µM) in each case.
For the molecule `CN(C)[C@@H]1C(O)=C(C(N)=O)C(=O)[C@@]2(O)C(O)=C3C(=O)c4c(O)cccc4[C@@](C)(O)[C@H]3C[C@@H]12` [TETRACYCLINE], the figures for the zone of inhibition at 100 ppm with Escherichia coli and with Staphylococcus aureus [5] were 6 to 27 mm and 12 to 24 mm, respectively.
